According to article PMC4097363, “Trace amines inhibit insect odorant receptor function through antagonism of the co-receptor subunit” (F1000Research, 2014):
Like-named read-outs stand apart in the source and are kept apart here.

Assays:
Dmel\Orco = target: T1, Dmel\Orco (Drosophila melanogaster, UniProt Q9VNB5); experiment: Antagonism of OLC12 activation of Orco in Xenopus oocytes; assay type: cell-based; settings: 20µM OLC12, 10µM tryptamine
T1 sequence (Q9VNB5 1-486): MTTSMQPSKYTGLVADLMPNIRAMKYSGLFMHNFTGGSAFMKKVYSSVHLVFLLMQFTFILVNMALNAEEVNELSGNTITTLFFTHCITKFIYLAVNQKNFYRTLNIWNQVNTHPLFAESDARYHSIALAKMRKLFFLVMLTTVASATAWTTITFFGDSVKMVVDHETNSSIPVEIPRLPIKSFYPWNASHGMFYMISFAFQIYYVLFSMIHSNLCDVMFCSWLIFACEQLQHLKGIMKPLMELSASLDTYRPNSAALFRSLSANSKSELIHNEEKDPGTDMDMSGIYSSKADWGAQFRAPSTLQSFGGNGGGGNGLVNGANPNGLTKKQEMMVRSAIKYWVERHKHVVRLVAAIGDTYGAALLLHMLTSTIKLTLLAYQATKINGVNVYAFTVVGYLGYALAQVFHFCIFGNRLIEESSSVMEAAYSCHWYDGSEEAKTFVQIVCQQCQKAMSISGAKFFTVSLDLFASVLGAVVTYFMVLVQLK
Method: (§1) Follicle cells were removed by treatment with collagenase B (Boehringer Mannheim) for 2 hours at room temperature. Capped cRNA encoding each OR subunit was generated using mMessage mMachine kits (Ambion). For heteromeric ORs, 25 ng of cRNA encoding each OR subunit was injected into Stage V-VI Xenopus oocytes. For expression of Orco homomers, 50 ng of cRNA was injected. Oocytes were incubated at 18°C in Barth's saline (in mM: 88 NaCl, 1 KCl, 2.4 NaHCO 3, 0.3 CaNO 3, 0.41 CaCl 2, 0.82 MgSO 4, 15 HEPES, pH 7.6, and 150µg/ml ceftazidime) for 2–5 days prior to electrophysiological recording.
Odorant and Orco ligand induced currents were recorded under two-electrode voltage clamp, using an automated parallel electrophysiology system (OpusExpress 6000A, Molecular Devices). Oocytes were perfused with ND96 (in mM: 96 NaCl, 2 KCl, 1 CaCl 2, 1 MgCl 2, 5 HEPES, pH 7.5). Orco ligands were prepared as 50 or 100 mM stock solutions in DMSO and then diluted into ND96 on the day of the experiment. Odorants were prepared as 100 mM stock solutions in DMSO and then diluted into ND96. Unless otherwise noted, applications were for 60 sec at a flow rate of 1.0 ml/min, with extensive washing in ND96 at 4.6 ml/min between applications. Micropipettes were filled with 3 M KCl and had resistances of 0.2–2.0 MΩ. The holding potential was -70 mV. […]

Agam\Orco+Agam\Or65 = Agam\Orco+Agam\Or65 (Anopheles gambiae, UniProt Q7QCC7); experiment: Antagonism of OLC12 activation of heteromeric OR in Xenopus oocytes; assay type: cell-based; settings: for IC50: read-out: IC 50 for inhibition of Agam\Orco+Agam\Or65 activation
Method: as §1
Odorant and Orco ligand induced currents were recorded under two-electrode voltage clamp, using an automated parallel electrophysiology system (OpusExpress 6000A, Molecular Devices). Oocytes were perfused with ND96 (in mM: 96 NaCl, 2 KCl, 1 CaCl 2, 1 MgCl 2, 5 HEPES, pH 7.5). Orco ligands were prepared as 50 or 100 mM stock solutions in DMSO and then diluted into ND96 on the day of the experiment. Odorants were prepared as 100 mM stock solutions in DMSO and then diluted into ND96. Unless otherwise noted, applications were for 60 sec at a flow rate of 1.0 ml/min, with extensive washing in ND96 at 4.6 ml/min between applications. Micropipettes were filled with 3 M KCl and had resistances of 0.2–2.0 MΩ. The holding potential was -70 mV. Current responses, filtered (4-pole, Bessel, low pass) at 20 Hz (-3 db) and sampled at 100 Hz, were captured and stored using OpusXpress 1.1 software (Molecular Devices).
To screen for agonist activity, oocytes were exposed to 30 sec applications of candidate compounds with 5 min washes between applications ( Figure 2A). For the concentration-response protocol ( Table 1), applications were for 20 sec at a flow rate of 1.65 ml/min. […]
Initial analysis of electrophysiological data was done using Clampfit 9.1 software (Molecular Devices). […] Statistical significance (p<0.05) was assessed using a two-tailed unpaired t test, an F test, or a one-way analysis of variance followed by the Dunnett's post-test, as appropriate.

Agam\Orco+Agam\Or65, sequence (Q7QCC7 whole entry): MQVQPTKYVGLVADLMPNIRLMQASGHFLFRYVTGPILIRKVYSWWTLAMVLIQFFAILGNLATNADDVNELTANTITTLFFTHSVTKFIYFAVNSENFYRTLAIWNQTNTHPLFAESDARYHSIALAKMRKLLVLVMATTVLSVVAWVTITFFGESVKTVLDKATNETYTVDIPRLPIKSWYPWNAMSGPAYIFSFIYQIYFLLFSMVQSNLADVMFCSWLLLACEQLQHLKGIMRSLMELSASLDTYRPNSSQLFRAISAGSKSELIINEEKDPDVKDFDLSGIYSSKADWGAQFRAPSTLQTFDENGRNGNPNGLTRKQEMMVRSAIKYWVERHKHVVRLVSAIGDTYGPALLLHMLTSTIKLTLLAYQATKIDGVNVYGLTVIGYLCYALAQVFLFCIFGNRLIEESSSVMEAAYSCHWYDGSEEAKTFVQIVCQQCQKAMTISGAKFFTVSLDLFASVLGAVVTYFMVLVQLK

NCCc1c[nH]c2ccccc12 [tryptamine]
inhibition of OLC12 activation of Orco (Dmel\Orco): inhibited OLC12 activation of Orco from each of these three insect species
mechanism of inhibition of OLC12 activation (Agam\Orco+Agam\Or65; Agam\Orco+Agam\Or65, 20µM vs 100µM OLC12): competitively inhibits OLC12 activation
IC50 (Agam\Orco+Agam\Or65; activated by 20µM OLC12): 2.9 ± 0.5 µM
IC50 (Agam\Orco+Agam\Or65; activated by 100µM OLC12): 8.5 ± 1.1 µM
